# Values of other authors, collected in US20250369985A1, “METHOD FOR DETERMINING THE THERAPEUTIC REGIMEN FOR AN INDIVIDUAL AND ITS USE” (MOSAIQUES DIAGNOSTICS AND THERAPEUTICS AG, priority 2022, published 2025).
# Read-outs that look alike come from different tables or passages of the source.
# Test system: urinary proteins/peptides (71 biomarkers of CD71 classifier)
compound,measurement,setting,value
"CC(=O)S[C@@H]1CC2=CC(=O)CC[C@]2(C)[C@H]2CC[C@@]3(C)[C@@H](CC[C@@]34CCC(=O)O4)[C@H]12 [drug B, Spironolactone]",f (fold-change of the abundance),peptide 99900220 (Seq. ID No. 1),1
same,f (fold-change of the abundance),peptide 99900467 (Seq. ID No. 2),1
same,f (fold-change of the abundance),peptide 99901399 (Seq. ID No. 3),1
same,f (fold-change of the abundance),peptide 99902592 (Seq. ID No. 4),1
same,f (fold-change of the abundance),peptide 99903025 (Seq. ID No. 5),1
same,f (fold-change of the abundance),peptide 99904405 (Seq. ID No. 6),1
same,f (fold-change of the abundance),peptide 99904666 (Seq. ID No. 7),1
same,f (fold-change of the abundance),peptide 99904862 (Seq. ID No. 8),1
same,f (fold-change of the abundance),peptide 99905044 (Seq. ID No. 9),1
same,f (fold-change of the abundance),peptide 99905259 (Seq. ID No. 10),1
same,f (fold-change of the abundance),peptide 99905274 (Seq. ID No. 11),1
same,f (fold-change of the abundance),peptide 99905379 (Seq. ID No. 12),1
same,f (fold-change of the abundance),peptide 99905423 (Seq. ID No. 13),1
same,f (fold-change of the abundance),peptide 99905509 (Seq. ID No. 14),0.77
same,f (fold-change of the abundance),peptide 99905551 (Seq. ID No. 15),1.97
same,f (fold-change of the abundance),peptide 99906176 (Seq. ID No. 16),1
same,f (fold-change of the abundance),peptide 99907275 (Seq. ID No. 17),1
same,f (fold-change of the abundance),peptide 99907807 (Seq. ID No. 18),1
same,f (fold-change of the abundance),peptide 99908755 (Seq. ID No. 19),1
same,f (fold-change of the abundance),peptide 99908795 (Seq. ID No. 20),1
same,f (fold-change of the abundance),peptide 99908916 (Seq. ID No. 21),1
same,f (fold-change of the abundance),peptide 99909059 (Seq. ID No. 22),1
same,f (fold-change of the abundance),peptide 99910002 (Seq. ID No. 23),1
same,f (fold-change of the abundance),peptide 99910032 (Seq. ID No. 24),1
same,f (fold-change of the abundance),peptide 99910407 (Seq. ID No. 25),1
same,f (fold-change of the abundance),peptide 99910483 (Seq. ID No. 26),0.78
same,f (fold-change of the abundance),peptide 99910554 (Seq. ID No. 27),1
same,f (fold-change of the abundance),peptide 99910883 (Seq. ID No. 28),1
same,f (fold-change of the abundance),peptide 99911002 (Seq. ID No. 29),1
same,f (fold-change of the abundance),peptide 99911193 (Seq. ID No. 30),1
same,f (fold-change of the abundance),peptide 99911415 (Seq. ID No. 31),1
same,f (fold-change of the abundance),peptide 99911559 (Seq. ID No. 32),1
same,f (fold-change of the abundance),peptide 99911777 (Seq. ID No. 33),1
same,f (fold-change of the abundance),peptide 99912101 (Seq. ID No. 34),1
same,f (fold-change of the abundance),peptide 99912211 (Seq. ID No. 35),1
same,f (fold-change of the abundance),peptide 99912366 (Seq. ID No. 36),1.5
same,f (fold-change of the abundance),peptide 99912411 (Seq. ID No. 37),1
same,f (fold-change of the abundance),peptide 99912661 (Seq. ID No. 38),1
same,f (fold-change of the abundance),peptide 99913200 (Seq. ID No. 39),1.21
same,f (fold-change of the abundance),peptide 99913322 (Seq. ID No. 40),1
same,f (fold-change of the abundance),peptide 99913825 (Seq. ID No. 41),0.65
same,f (fold-change of the abundance),peptide 99914211 (Seq. ID No. 42),1
same,f (fold-change of the abundance),peptide 99914445 (Seq. ID No. 43),1
same,f (fold-change of the abundance),peptide 99914876 (Seq. ID No. 44),1.5
same,f (fold-change of the abundance),peptide 99914887 (Seq. ID No. 45),1
same,f (fold-change of the abundance),peptide 99914893 (Seq. ID No. 46),1
same,f (fold-change of the abundance),peptide 99914935 (Seq. ID No. 47),0.72
same,f (fold-change of the abundance),peptide 99915015 (Seq. ID No. 48),1
same,f (fold-change of the abundance),peptide 99915755 (Seq. ID No. 49),1
same,f (fold-change of the abundance),peptide 99915778 (Seq. ID No. 50),1
same,f (fold-change of the abundance),peptide 99915883 (Seq. ID No. 51),1
same,f (fold-change of the abundance),peptide 99916170 (Seq. ID No. 52),1
same,f (fold-change of the abundance),peptide 99916177 (Seq. ID No. 53),1.88
same,f (fold-change of the abundance),peptide 99916611 (Seq. ID No. 54),1
same,f (fold-change of the abundance),peptide 99916615 (Seq. ID No. 55),1
same,f (fold-change of the abundance),peptide 99916966 (Seq. ID No. 56),1
same,f (fold-change of the abundance),peptide 99917047 (Seq. ID No. 57),0.82
same,f (fold-change of the abundance),peptide 99917221 (Seq. ID No. 58),1
same,f (fold-change of the abundance),peptide 99917280 (Seq. ID No. 59),1
same,f (fold-change of the abundance),peptide 99917288 (Seq. ID No. 60),1
same,f (fold-change of the abundance),peptide 99917419 (Seq. ID No. 61),1
same,f (fold-change of the abundance),peptide 99917505 (Seq. ID No. 62),1
same,f (fold-change of the abundance),peptide 99917596 (Seq. ID No. 63),1
same,f (fold-change of the abundance),peptide 99917626 (Seq. ID No. 64),1
same,f (fold-change of the abundance),peptide 99917690 (Seq. ID No. 65),1
same,f (fold-change of the abundance),peptide 99917825 (Seq. ID No. 66),1
same,f (fold-change of the abundance),peptide 99917890 (Seq. ID No. 67),1
same,f (fold-change of the abundance),peptide 99917947 (Seq. ID No. 68),1
same,f (fold-change of the abundance),peptide 99918831 (Seq. ID No. 69),1.27
same,f (fold-change of the abundance),peptide 99918906 (Seq. ID No. 70),1
same,f (fold-change of the abundance),peptide 99918909 (Seq. ID No. 71),0.62
